According to patent US20050238577A1, “Isolation of epithelial cells or their biochemical contents from excreta after in vivo isotopic labeling” (The Regents of the University of California, priority 2004, published 2005):

Assay: Tolerability of maintained 2H2O body water enrichment
Assay type: in vivo
Conditions: 1-10% of total body water labeled, maintained for weeks or months in humans (>100 people) and experimental animals; rapid changes in enrichment prevented
Excerpt: Relatively high body water enrichments of ^2H2O (e.g., 1-10% of the total body water is labeled) may be achieved relatively inexpensively using the techniques of the invention. […] This finding in a large number of human subjects (>100 people) is contrary to previous concerns about vestibular toxicities at high doses of ^2H2O. The Applicant has discovered that as long as rapid changes in body water enrichment are prevented (e.g., by initial administration in small, divided doses), high body water enrichments of ^2H2O can be maintained with no toxicities. For example, the low expense of commercially available ^2H2O allows long-term maintenance of enrichments in the 1-5% range at relatively low expense (e.g., calculations reveal a lower cost for 2 months labeling at 2% ^2H2O enrichment, and thus 7-8% enrichment in the alanine precursor pool, than for 12 hours labeling of ^2H-leucine at 10% free leucine enrichment, and thus 7-8% enrichment in leucine precursor pool for that period).

Structure (SMILES): [2H]O[2H] [^2H2O, deuterated water]
- toxicity at maintained body water enrichment: without any evidence of toxicity
